Experimental data reported in patent US20220008406A1, “USE OF NUCIFERIN AND LOTUS LEAF EXTRACT IN THE PREPARATION OF A MEDICAMENT FOR TREATING ATROPHIC GASTRITIS AND/OR BLOCKING TRANSFORMATION OF GASTRITIS INTO CANCER” (priority 2018, published 2022).
Entries after “also recorded” stand apart in the source; their conditions may differ.

Legend:
colon cancer = details: people who take aspirin for a long time; cited from earlier work
[1] = system: rats with chronic atrophic gastritis; assay: Nuciferine treatment of rats with chronic atrophic gastritis with intestinal metaplasia induced by sodium deoxycholate and ammonia water; type: in vivo, SD rats; details: for pathological state of chronic atrophic gastritis, HE-stained gastric tissue sections: 4 weeks after 8 weeks modeling, vs model group
Source text: An animal model of chronic atrophic gastritis induced by sodium deoxycholate and ammonia water was selected. After the model was successfully established, celecoxib and nuciferine were given by gavage.
The experiment: The experimental animals were from Beijing Weitong Lihua Laboratory Animal Technology Co., Ltd. Thirty SD rats with a specific pathogen free (SPF) grade of 200±20 g were selected, with half males and half males, and randomly divided into […]: normal control group, chronic atrophic gastritis (CAG) model group, the positive drug celecoxib intervention group and the nuciferine intervention group, with 6 rats in each group. The nuciferine was purchased from Chengdu Refines Biotechnology Co., Ltd., with a specification of 5 g and a purity of over 98%. Celecoxib was purchased from Beijing Bailingwei Technology Co., Ltd., with brand J&K, a specification of 1 g, and purity above 98%. Sodium deoxycholate was purchased from Amresco, USA, with a specification of 100 g. The rats in the model group, celecoxib intervention group and nuciferine intervention group were given sodium deoxycholate solution and ammonia to induce chronic atrophic gastritis. 20 mmol/L sodium deoxycholate was administered […] at a dose of 6 ml/kg, twice a week on an empty stomach, 0.1% ammonia water was drunk freely, and the model was continuously modeled for 8 weeks. […] After modeling, the celecoxib group and the nuciferine intervention group were given celecoxib 10 mg/kg, nuciferine 40 mg/kg, and 10 mg/kg by gavage administration, once a day. During the experiment, the rats' body weight and food intake were observed.
At the end of the dosing experiment, after the rats were sacrificed by dislocation, the stomach tissue was quickly taken out and prepared for pathological sectioning. The obtained gastric tissue was cut along the greater curvature of the stomach, washed with saline, blotted dry with filter paper, and fixed with formalin solution (10% formaldehyde solution). The sections were embedded, dehydrated by alcohol, and then made transparent with xylene. And then the sections were waxed and embed in paraffin. In the staining stage, the sections were soaked in xylene solution for 10 minutes each time for 3 times; then they were soaked in absolute ethanol and rinsed in tap water. Finally, the sections were stained with hematoxylin (to stain the nucleus) and eosin (to stain the cytoplasm), and the sections were mounted with neutral gum. Finally, the pathological changes of rat stomach tissue were observed under light microscope.

[2] = system: gastric mucosal injury model rats; assay: Protection against gastric mucosal damage induced by absolute ethanol in rats; type: in vivo, SD rats; details: for congestion and bleeding of the gastric mucosa: then 1.0 mL absolute ethanol
Source text: After continuous administration of […] and […] in rats, gastric mucosal damage was induced by absolute ethanol, and the gastric mucosal damage was observed under a microscope after dissection.
The experimental: The experimental animals were from Beijing Sibeifu Biotechnology Co., Ltd., and 30 SD rats of 200±20 g specific pathogen free (SPF) grade, male, were chosen and randomly divided into 5 groups: normal control group, the gastric mucosal injury model group, the nuciferine low-dose group, the nuciferine high-dose group and the lotus leaf extract group, as shown in Table 3. The low-dose nuciferine group, the high-dose nuciferine group and the lotus leaf extract group were administered intragastrically for 14 days, once a day. The nuciferine was purchased from Chengdu Refines Biotechnology Co., Ltd., with a specification of 5 g and a purity of over 98%. The lotus leaf extract was purchased from Hebei Chenguang Biotechnology Group Handan Co., Ltd., with a specification of 1 kg and a content of nuciferine of more than 0.4%. 1 hour after the rats in the low-dose nuciferine group, the high-dose nuciferine group and the lotus leaf extract group were given continuous administration, the rats in the control group and the model group were strictly fasted for 24 hours (with water available), and medicine was also prohibited during this period. Rats in the model group, the low-dose nuciferine group, the high-dose nuciferine group, and the lotus leaf extract group were given 1.0 mL of absolute ethanol per rat by intragastric administration; 1 hour after the completion of the modeling, the rats were sacrificed by blood sampling from the abdominal aorta, and the stomach was taken by cutting the abdomen, was injected with 10% formaldehyde solution, and fixed for 20 minutes, then the stomach was cut along the greater curvature of the same and was washed to remove the stomach contents, and a general observation under a dissecting microscope was conducted and the length of injury (mm) was measured.

[3] = system: Drosophila gastrointestinal stem cells; assay: DSS-induced abnormal proliferation of Drosophila gastrointestinal stem cells (esg-GFP); type: in vivo
Source text: The gastrointestinal tumorigenesis model reported in the publication “Cell Stem Cell” of “Cell” Press was select. Dextran sulfate sodium (DSS) was used to induce abnormal proliferation of Drosophila gastrointestinal stem cells to simulate the process of tumorigenesis. During the modeling period, nuciferine and lotus leaf extract were given.
The experimental: Dextran sulfate sodium (DSS) was used to induce abnormal proliferation of drosophila gastrointestinal stem cells to simulate the process of tumorigenesis. The experimental drosophila were esg-GFP purchased from Tsinghua Drosophila Center. GFP (green fluorescent protein driven by esg-Ga14) can specifically label intestinal stem cells and enteroblasts. A solution containing 20% sucrose, 3% DSS (average molecular weight 40 kDa) and 0.5% dimethyl sulfoxide (DMSO) was prepared, and the solution was mixed with the drosophila food, and the mixture was placed half-dry and was then used to feed the drosophila to perform modeling. During the modeling period, different groups were given nuciferine and lotus leaf extract. The nuciferine was purchased from Chengdu Refines Biotechnology Co., Ltd., with a specification of 5 g and a purity of over 98%. The lotus leaf extract was purchased from Hebei Chenguang Biotechnology Group Handan Co., Ltd., with a specification of 100 g and a nuciferine content of more than 0.4%. Sodium dextran sulfate was purchased from Beijing Zhongkekeao Biotechnology Co., Ltd. with a brand of mp and a specification of 50 g. The dimethyl sulfoxide was purchased from Amresco, USA, with a specification of 500 ml.
1) The Nuciferine Experiment Groups
Model control group: medium+0.5% DMSO+3% DSS
Low-dose nuciferine group: medium+0.5% DMSO+3% DSS+nuciferine 100 μM
High-dose nuciferine group: medium+0.5% DMSO+3% DSS+nuciferine 200 μM
2) The Lotus Leaf Extract Experiment Groups
Lotus leaf extract low-dose group: medium+0.5% DMSO+3% DSS+lotus leaf extract (containing 100 μM […])
Lotus leaf extract medium-dose group: medium+0.5% DMSO+3% DSS+lotus leaf extract (containing 200 μM […]) […]

MNNG-GES-1 cells = assay: MTT assay on MNNG-stimulated GES-1 cell model of transformation of gastritis to gastric cancer; type: cell-based, human; details: nuciferine 48 h
Source text: The gastritis cancer transformation model used in this example formed by human gastric epithelial cells (GES-1) induced by chemical mutagens N-methyl N-nitronitrosoguanidine (MNNG) was as reported in the literature. The nuciferine was purchased from Chengdu Refines Biotechnology Co., Ltd., with a specification of 1 g and a purity of over 98%. The MNNG was purchased from Beijing Baiyiyi Chuang Biotechnology Co., Ltd., with a brand Tixiai and a specification of 5 g. The GES-1 cells were purchased from Shanghai Xuran Biotechnology Co., Ltd. The phosphate buffered saline (PBS) was purchased from Amresco, USA, with a specification of 10 L. The dimethyl sulfoxide (DMSO) was purchased from Amresco, USA, with a specification of 500 ml. The fetal bovine serum (FBS) was purchased from Amresco, USA, with a specification of 100 ml. The 3-(4,5-Dimethylthiazole-2)-2,5-diphenyltetrazolium bromide (MTT) was purchased from Shanghai Biyuntian Biotechnology Co., Ltd., with a specification of 500 mg.
GES-1 cells was planted in a 96-well plate (8000 cells/well, leave a row of blank holes, discard the edge holes and add an equal volume of PBS to reduce evaporation), the old solution was aspirated the next day, and 10% FBS containing no double antibody medium was added, […] MNNG was added to induce stimulation, culturing for 24 h in the dark, and discarding the culture medium containing MNNG. […]

Compound | reduction of incidence of colon cancer (colon cancer) [%] | pathological state of chronic atrophic gastritis, HE-stained gastric tissue sections ([1]; 10 mg/kg (celecoxib group; low-dose nuciferine group) by gavage once a day) | pathological state of chronic atrophic gastritis, HE-stained gastric tissue sections ([1]; 40 mg/kg (high-dose nuciferine group) by gavage once a day) | weight of rats ([1]; CAG model rats, therapeutic administration, dose groups not distinguished) | treatment of chronic atrophic gastritis and intestinal metaplasia of rats (pathological slices) ([1]; intervention groups, doses not distinguished) | gastric mucosal injury of rats compared with the model group ([2]; doses not distinguished) | congestion and bleeding of the gastric mucosa ([2]; nuciferine high-dose 40 mg/kg intragastric once a day 14 days) | congestion and bleeding of the gastric mucosa ([2]; nuciferine low-dose 20 mg/kg intragastric once a day 14 days) | abnormal proliferation of Drosophila gastrointestinal stem cells and mucosal ulceration ([3]; doses not distinguished) | proliferation of drosophila gastrointestinal stem cells ([3]; high-dose nuciferine 200 μM in medium + 0.5% DMSO + 3% DSS, 3-5 days at 25° C.) | abnormal proliferation of drosophila gastrointestinal stem cells ([3]; low-dose nuciferine 100 μM in medium + 0.5% DMSO + 3% DSS, 3-5 days at 25° C.) | IC50 (MNNG-GES-1 cells; Homo sapiens, GES1, GES-1 cells stimulated with MNNG 24 h, read-out: half inhibitory concentration (IC50) on cells transformed from gastritis to gastric cancer) [µM] | viability of MNNG-GES-1 cells (MNNG-GES-1 cells; P<0.05)
CC(=O)Oc1ccccc1C(=O)O [aspirin] | 24 | – | – | – | – | – | – | – | – | – | – | – | –
COc1cc2c3c(c1OC)-c1ccccc1C[C@H]3N(C)CC2 [nuciferine] | – | reduced to the state of chronic non-atrophic gastritis | best effect; also recorded: significantly reduced | increased the weight of rats | effectively treated | significantly improved; also recorded: improved compared with the model group | no congestion and bleeding | reduced | effectively inhibited | returned to normal | reduced | 92.7 | significantly inhibiting
